From patent publication US11628148B2, “Nail hardening composition and method of use” (WELLA OPERATIONS US, LLC, priority 2017, dated 2023) come the findings set out here.

A short description of data set [1]: Behaviour of the test solution at the highest concentration prepared. It counts as physicochemical. The note with it: 3.5% (w/w) BMH in dimethyl sulfoxide.
In the next data set the test system is cow hoof samples. In words: Three-point bend test (flexural strength) of cow hoof samples immersed 24 hours in test solution. The note with it: for FS (flexural strength): 24 h immersion; for % Increase (flexural strength): only samples thinner than 1.8 mm. How it is done:
1. […] Pack samples in vacuum bag. 2. […] 3. […] Pack samples in vacuum bag. 4. Three-Point Bend Test for Untreated and Treated Cow Hoof Samples • Perform using a Texture Analyzer TAXT Plus from Texture Technologies. • Three point bend test is conducted until sample fracture. • Flexural strength is calculated based on force at break for each sample. Results A 3-point bend test set-up was used to measure the break force of treated and untreated cow hoof slices with thickness ranging from 0.88 mm to 2.75 mm. The flexural strength was calculated for each sample, based on sample thickness and width. For each group, the average flexural strength and the standard deviation were calculated. The p-value for the effect significance was calculated for each treated group versus the corresponding baseline value using ANOVA. Outliers were eliminated using the modified Thompson Tau method. Baseline values were determined for groups of untreated samples. Because the hypothesis is that the crosslinker reacts with thiol groups, the effect of dithiothreitol (DTT), a disulfide reducing agent, was tested as well.

As to `O=C1C=CC(=O)N1CCCCCCN1C(=O)C=CC1=O` [Bismaleimidohexane, bismaleimidohexane], the “Observation on the solution” value in data set [1] was “Gelification”; in data set [1] (listed as BMH) it was “gelification”. The entries for the “% increase (flexural strength vs baseline)” value in the data set with cow hoof samples (1% BMH in dimethyl sulfoxide) and in the data set on cow hoof samples (3% BMH in dimethyl sulfoxide) were 9.7% and 8.3%, respectively. Besides, the “FS (flexural strength)” value in the data set on cow hoof samples (1% by weight BMH in dimethyl sulfoxide) is 158 N/mm2; in the data set with cow hoof samples (3% by weight BMH in dimethyl sulfoxide), 156 N/mm2. Besides, in the data set on cow hoof samples (BMH at 1% and 3%), the “Effect on flexural strength (in words)” value is reported as “non-significant increase”.
In the case of `NCCCCCCN` [Hexamethylene diamine, hexamethylene diamine], the “FS (flexural strength)” value in the data set on cow hoof samples (1% by weight hexamethylene diamine alone in ethanol (equal. to 3% H + M)) is recorded as 132 N/mm2; in the data set with cow hoof samples (1.7% by weight hexamethylene diamine alone in ethanol (equal. to 5% H + M)) it was 149 N/mm2; in the data set with cow hoof samples (2.3% by weight hexamethylene diamine alone in ethanol (equal. to 7% H + M)), 122 N/mm2. In addition, the “% increase (flexural strength vs baseline)” value is recorded as 3.9% in the data set with cow hoof samples (1% hexamethylene diamine alone in ethanol (equal. to 3% H + M)), 17.3% in the data set with cow hoof samples (1.7% hexamethylene diamine alone in ethanol (equal. to 5% H + M)) and −3.9% with cow hoof samples (2.3% hexamethylene diamine alone in ethanol (equal. to 7% H + M)). In addition, in the data set with cow hoof samples (HMD taken separately at 1.7%), the “Effect on flexural strength (in words)” value is given as “borderline significant strengthening effect”.
Take “Hexamethylene diamine/Maleic acid [Hexamethylene diamine + Maleic acid]”: the “% increase (flexural strength vs baseline)” value in the data set on cow hoof samples (1% HMD + MA in ethanol, all samples) is reported as 13.4%; in the data set on cow hoof samples (3% HMD + MA in ethanol, all samples), 17.3%; in the data set on cow hoof samples (5% HMD + MA in ethanol, all samples), 17.3%; with cow hoof samples (7% HMD + MA in ethanol, all samples), 3.9%. Also, the entries for the “% Increase (flexural strength)” value in the data set with cow hoof samples (1% HMD + MA), with cow hoof samples (3% HMD + MA) and with cow hoof samples (5% HMD + MA) were 20.2%, 24.2% and 28.2%, respectively. For the same compound, the “FS (flexural strength)” value in the data set on cow hoof samples (1% by weight HMD + MA (1:2) in ethanol, all samples) amounted to 144 N/mm2; in the data set with cow hoof samples (3% by weight HMD + MA (1:2) in ethanol, all samples) it was 149 N/mm2; in the data set on cow hoof samples (5% by weight HMD + MA (1:2) in ethanol, all samples), 149 N/mm2; in the data set on cow hoof samples (7% by weight HMD + MA (1:2) in ethanol, all samples), 132 N/mm2. Moreover, the “Effect on flexural strength (in words)” value in the data set with cow hoof samples (HMD + MA (1:2 ratio) at 3% and 5% (w/w)) is on record as “significant increase”.
With `O[C@H](CS)[C@H](O)CS` (racemic) [DTT, dithiothreitol], the “Effect on flexural strength (in words)” value with cow hoof samples (disulfide reducing agent, results not shown) is reported as “no significant effect”.
Take `C=O` [Formaldehyde, formaldehyde]: the “FS (flexural strength)” value was 141 N/mm2 in the data set on cow hoof samples (1% by weight formaldehyde in ethanol, all samples); 132 N/mm2 with cow hoof samples (3% by weight formaldehyde in ethanol, all samples); 134 N/mm2 with cow hoof samples (5% by weight formaldehyde in ethanol, all samples). In addition, the “% increase (flexural strength vs baseline)” value with cow hoof samples (1% formaldehyde in ethanol, all samples) stood at 20.5%; in the data set with cow hoof samples (3% formaldehyde in ethanol, all samples) it was 12.8%; in the data set on cow hoof samples (5% formaldehyde in ethanol, all samples), 14.5%. The “% Increase (flexural strength)” value is on record as 22.2% with cow hoof samples (1% formaldehyde), 15.4% in the data set with cow hoof samples (3% formaldehyde) and 20.5% with cow hoof samples (5% formaldehyde).
`O=C(O)/C=C\C(=O)O` [Maleic Acid, maleic acid]: in the data set with cow hoof samples (3.3% by weight maleic acid alone in ethanol (equ. to 5% H + M)), the “FS (flexural strength)” value stood at 131 N/mm2. Also, the “% increase (flexural strength vs baseline)” value in the data set with cow hoof samples (3.3% maleic acid alone in ethanol (equ. to 5% H + M)) was 3.1%. The “Effect on flexural strength (in words)” value in the data set with cow hoof samples (MA taken separately) is reported as “does not seem to have any significant effect”.
